Several values for one entry are separate records, joined by “and”; a condition that tells them apart may be missing. Identical values can stand only once. Like-named read-outs stand apart in the source and are kept apart here.
Assays:
[1] = biological target: T1, PRDM9 (Homo sapiens, UniProt Q9NQV7); test: MOA determination: IC50 at varying SAM or peptide concentrations (SPA); format: biochemical
T1 construct: PRDM9 (amino acids: 195–415)
T1 sequence (Q9NQV7 195-415): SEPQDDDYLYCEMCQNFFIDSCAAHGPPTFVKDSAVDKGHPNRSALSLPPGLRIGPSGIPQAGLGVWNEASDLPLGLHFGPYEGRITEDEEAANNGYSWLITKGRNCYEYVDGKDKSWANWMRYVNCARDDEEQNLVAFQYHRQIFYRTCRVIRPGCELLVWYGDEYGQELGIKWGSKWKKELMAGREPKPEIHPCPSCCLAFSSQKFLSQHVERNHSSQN
Text: Reactions (in quadruplicates) were initiated by adding SAM and followed by measuring the methyltransferase activity using SPA assay. The determined IC50 values were fitted against the corresponding substrate concentrations. An increase in IC50 values when concentration of peptide was increased indicated a peptide-competitive pattern of inhibition.

[2] = biological target: T2, Biotinylated PRDM9 (amino acids 195–415) (Homo sapiens, UniProt Q9NQV7); test: Surface plasmon resonance (SPR) binding; design: key to SPR steady state response, raw data (Y): response units (RU); conditions: for SPR steady state response, raw data (Y): 350 µM SAM, Exp1–4
T2 construct: Biotinylated PRDM9 (amino acids 195–415)
T2 sequence (Q9NQV7 195-415): T1 sequence (Q9NQV7 195-415)
Description: Biotinylated PRDM9 (amino acids 195–415) was immobilized on the flow cell of a SA sensor chip in 1x HBS-EP buffer, yielding 5700 RU. Using the buffer with 0.5% DMSO, 350 µM SAM and single cycle kinetic with 60 s contact time and a dissociation time of 120 s at a flow rate of 75 µL/min. […] Only binding to PRDM9 and PRDM7 with ∆Tm of higher than 2 °C was observed. […] All (c–e) experiments were performed in triplicate (n = 3) and data points are presented as average ± standard deviation. Source data are provided as a Source Data file.
Binding studies by SPR were performed using a Biacore T200 (GE Health Sciences Inc.) at 20 °C. Biotinylated PRDM9 was captured onto a flow cell of a streptavidin-conjugated SA chip at approximately 5000 response units (RU) according to manufacturer’s protocol while another flow cell was left empty for reference subtraction. […]
in the presence of SAM are the same as presented in figure 2 (a and b) within the main text. The experiments were performed in quadruplicate in the presence of 350 µM SAM (5x Km) or 750 µM SAH (5x IC50). Biotinylated PRDM9 (195-415aa) was immobilized on the flow cell of an SA sensor chip in 1x HBS-EP buffer, yielding 5700 RU. Using the buffer with 0.5% DMSO, 350 µM SAM or 750 µM SAH and single cycle kinetics with 60 s contact time and a dissociation time of 120 s at a flow rate of 75 µL/min. […]
and at 20 µM in the presence of SAH as the highest concentration. Dilution factor of 0.33 was used to yield 5 concentrations.

[3] = biological target: T3, Muscarinic M2 (Homo sapiens, UniProt P08172); test: Eurofins Panlabs panel, radioligand binding; conditions: at 10 µM
T3 construct: NIMH Psychoactive Drug Screening Program, University of North Carolina at Chapel Hill
T3 sequence (P08172 1-466): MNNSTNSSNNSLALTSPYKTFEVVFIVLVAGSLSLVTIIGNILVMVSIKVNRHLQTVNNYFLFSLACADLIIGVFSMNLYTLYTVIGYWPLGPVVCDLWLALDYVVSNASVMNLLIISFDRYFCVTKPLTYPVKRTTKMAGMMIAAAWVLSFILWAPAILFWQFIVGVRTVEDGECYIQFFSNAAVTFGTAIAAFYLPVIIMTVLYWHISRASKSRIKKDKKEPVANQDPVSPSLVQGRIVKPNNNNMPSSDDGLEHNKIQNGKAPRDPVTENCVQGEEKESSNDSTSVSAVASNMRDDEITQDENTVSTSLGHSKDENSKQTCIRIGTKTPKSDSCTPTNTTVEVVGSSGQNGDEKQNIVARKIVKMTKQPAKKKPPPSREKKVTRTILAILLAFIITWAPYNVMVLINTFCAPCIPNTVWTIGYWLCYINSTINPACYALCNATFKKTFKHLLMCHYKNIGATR

[4] = biological target: PRDM13 (Homo sapiens, UniProt Q9H4Q3); test: DSF thermal stabilisation, PRDM selectivity; format: binding; conditions: 250 µM MRK-740; 2 mM SAM
Description: (§1) DSF measurements were performed as previously described[21] using a Light Cycler 480 II instrument from Roche Applied Science. All proteins tested in these selectivity experiments were used at final concentration of 0.02 mg mL^−1 in a 0.1 M HEPES, pH 7.5 and 150 mM NaCl buffer in the presence of 2 mM SAM. Sypro Orange was purchased from Invitrogen as a 5000 × stock solution (concentration not specified by vendor) and was diluted 1:1000 to yield a 5 × working concentration. The temperature scan curves were fitted to a Boltzmann sigmoid function, and the Tm values were obtained from the midpoint of the transition.

[5] = biological target: PRDM11 (Homo sapiens, UniProt Q9NQV5); test: DSF thermal stabilisation, PRDM selectivity; format: binding; conditions: 250 µM MRK-740; 2 mM SAM
Description: as §1

[6] = biological target: PRDM14 (Homo sapiens, UniProt Q9GZV8); test: DSF thermal stabilisation, PRDM selectivity; format: binding; conditions: 250 µM MRK-740; 2 mM SAM
Description: as §1

[7] = biological target: PRDM12 (Homo sapiens, UniProt Q9H4Q4); test: DSF thermal stabilisation, PRDM selectivity; format: binding; conditions: 250 µM MRK-740; 2 mM SAM
Description: as §1

[8] = biological target: T4, Adrenergic α2B (Homo sapiens, UniProt P18089); test: GPCR functional activity, GloSensor assay (agonist and antagonist mode); format: cell-based
T4 construct: NIMH Psychoactive Drug Screening Program, University of North Carolina at Chapel Hill
Text: Supplementary Figure 5. Assessment of GPCR functional activity. […]
profiles were generously provided by the National Institute of Mental Health’s (NIMH)
Psychoactive Drug Screening Program, (Contract # HHSN-271-2013-00017-C) directed by B.L.
Roth, University of North Carolina at Chapel Hill and Project Officer J. Driscoll at NIMH,
Bethesda, Maryland, USA. Further details available at https://pdspdb.unc.edu/pdspWeb/.
MOR stands for “Opiate µ receptor”. […]
[…] Source data are provided as a

T4 sequence (P18089 whole entry): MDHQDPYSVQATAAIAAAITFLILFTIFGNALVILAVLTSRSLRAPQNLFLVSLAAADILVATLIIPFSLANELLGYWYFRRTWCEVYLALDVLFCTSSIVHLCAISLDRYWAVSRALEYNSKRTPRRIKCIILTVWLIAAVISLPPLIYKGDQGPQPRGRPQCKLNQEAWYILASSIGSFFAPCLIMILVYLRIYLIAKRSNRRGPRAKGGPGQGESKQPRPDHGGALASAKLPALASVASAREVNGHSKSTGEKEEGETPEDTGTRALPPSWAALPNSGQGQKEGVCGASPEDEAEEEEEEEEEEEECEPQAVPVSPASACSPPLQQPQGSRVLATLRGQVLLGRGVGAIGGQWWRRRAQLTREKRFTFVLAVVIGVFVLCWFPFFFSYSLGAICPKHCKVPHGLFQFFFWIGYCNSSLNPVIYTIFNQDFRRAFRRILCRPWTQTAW
PRDM11, sequence (Q9NQV5 whole entry): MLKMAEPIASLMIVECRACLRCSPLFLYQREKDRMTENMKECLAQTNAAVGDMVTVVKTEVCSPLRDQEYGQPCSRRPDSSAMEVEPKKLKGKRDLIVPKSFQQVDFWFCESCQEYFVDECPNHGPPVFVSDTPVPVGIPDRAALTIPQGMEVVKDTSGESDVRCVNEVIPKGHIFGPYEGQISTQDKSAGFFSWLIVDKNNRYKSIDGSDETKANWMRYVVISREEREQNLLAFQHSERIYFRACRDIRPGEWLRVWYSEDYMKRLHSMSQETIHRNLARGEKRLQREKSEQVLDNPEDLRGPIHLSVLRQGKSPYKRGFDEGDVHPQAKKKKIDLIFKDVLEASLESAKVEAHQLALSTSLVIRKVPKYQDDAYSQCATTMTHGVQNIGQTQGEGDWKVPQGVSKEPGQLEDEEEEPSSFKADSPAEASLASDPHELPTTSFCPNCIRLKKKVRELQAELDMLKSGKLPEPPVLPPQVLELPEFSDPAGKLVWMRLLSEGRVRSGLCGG
PRDM12, sequence (Q9H4Q4 whole entry): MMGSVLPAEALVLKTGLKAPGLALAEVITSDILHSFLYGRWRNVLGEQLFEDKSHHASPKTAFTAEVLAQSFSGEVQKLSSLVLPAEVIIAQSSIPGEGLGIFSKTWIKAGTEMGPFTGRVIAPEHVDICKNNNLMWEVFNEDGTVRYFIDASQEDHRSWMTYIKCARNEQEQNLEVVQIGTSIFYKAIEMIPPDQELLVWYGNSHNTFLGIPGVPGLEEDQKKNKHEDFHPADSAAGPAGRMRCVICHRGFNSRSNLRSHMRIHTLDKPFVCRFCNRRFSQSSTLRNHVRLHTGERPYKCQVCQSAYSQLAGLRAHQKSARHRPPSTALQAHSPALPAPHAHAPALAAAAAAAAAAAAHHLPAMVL
PRDM13, sequence (Q9H4Q3 whole entry): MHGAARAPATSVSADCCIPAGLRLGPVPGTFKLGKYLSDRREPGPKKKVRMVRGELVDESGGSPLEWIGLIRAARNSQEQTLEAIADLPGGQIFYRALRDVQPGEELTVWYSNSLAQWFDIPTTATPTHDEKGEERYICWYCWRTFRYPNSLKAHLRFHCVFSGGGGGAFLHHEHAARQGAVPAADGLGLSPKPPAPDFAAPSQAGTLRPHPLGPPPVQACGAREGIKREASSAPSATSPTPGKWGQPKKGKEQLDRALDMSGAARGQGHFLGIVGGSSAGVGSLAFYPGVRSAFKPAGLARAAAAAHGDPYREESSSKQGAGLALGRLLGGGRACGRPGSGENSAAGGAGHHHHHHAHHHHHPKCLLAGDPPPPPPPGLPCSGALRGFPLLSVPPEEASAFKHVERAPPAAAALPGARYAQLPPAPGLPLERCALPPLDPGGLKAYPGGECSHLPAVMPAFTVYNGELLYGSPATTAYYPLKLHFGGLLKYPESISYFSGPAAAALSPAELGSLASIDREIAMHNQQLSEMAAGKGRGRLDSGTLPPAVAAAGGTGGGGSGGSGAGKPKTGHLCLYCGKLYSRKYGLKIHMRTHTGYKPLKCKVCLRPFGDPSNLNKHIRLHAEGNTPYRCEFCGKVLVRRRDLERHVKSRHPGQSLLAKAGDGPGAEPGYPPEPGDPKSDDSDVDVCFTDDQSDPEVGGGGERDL
PRDM14, sequence (Q9GZV8 whole entry): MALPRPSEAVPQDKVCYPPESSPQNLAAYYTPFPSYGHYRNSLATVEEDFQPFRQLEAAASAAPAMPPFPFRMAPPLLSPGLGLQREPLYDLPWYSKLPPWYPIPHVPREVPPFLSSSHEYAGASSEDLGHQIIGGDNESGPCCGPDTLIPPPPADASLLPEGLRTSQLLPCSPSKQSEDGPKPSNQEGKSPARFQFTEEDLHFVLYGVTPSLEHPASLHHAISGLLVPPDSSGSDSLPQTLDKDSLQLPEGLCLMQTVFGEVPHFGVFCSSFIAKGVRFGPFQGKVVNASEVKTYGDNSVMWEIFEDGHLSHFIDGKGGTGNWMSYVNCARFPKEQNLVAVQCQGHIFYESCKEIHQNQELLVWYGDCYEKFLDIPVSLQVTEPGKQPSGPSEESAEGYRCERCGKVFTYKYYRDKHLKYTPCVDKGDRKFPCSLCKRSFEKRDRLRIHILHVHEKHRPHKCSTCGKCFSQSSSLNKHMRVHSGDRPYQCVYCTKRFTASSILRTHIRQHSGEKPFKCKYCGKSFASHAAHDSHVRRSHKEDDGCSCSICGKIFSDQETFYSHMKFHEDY

For `COc1cc(OC)cc(-c2noc(N3CCN(C)C4(CCN(c5ccnc(C)c5)CC4)C3)n2)c1` [MRK-740], the “Pattern of PRDM9 inhibition with respect to SAM” value ([1]; 20 µM peptide, SAM 22 to 350 µM) was “uncompetitive pattern”, the Ki ([1]; 20 µM peptide, varying SAM, read-out: Ki, estimated from asymptote of Fig 2d) was ~0.16 µM and the “Pattern of PRDM9 inhibition with respect to peptide (H3 1–25) substrate” value ([1]; 350 µM SAM, peptide 1.25 to 20 µM) was “competitive pattern of PRDM9 inhibition”. For the same compound, the Ki ([1]; 350 µM SAM, varying H3 1–25 peptide, read-out: Ki, calculated from Y intercept of Fig. 2e) was 0.065 ± 0.006 µM, the IC50 ([1]; [H3 1-25]/Km 1.25, Figure 2e, average of replicates, read-out: Average IC50) was 0.0749 µM and the IC50 ([1]; [H3 1-25]/Km 1.25, Figure 2e, read-out: IC50 (µM), replicates) was 0.0747 µM and 0.0785 µM and 0.0703 µM and 0.0762 µM. The IC50 ([1]; [H3 1-25]/Km 2.5, Figure 2e, average of replicates, read-out: Average IC50) was 0.0926 µM, the IC50 ([1]; [H3 1-25]/Km 2.5, Figure 2e, read-out: IC50 (µM), replicates) was 0.0843 µM and 0.0895 µM and 0.0878 µM and 0.109 µM and the IC50 ([1]; [H3 1-25]/Km 5, Figure 2e, average of replicates, read-out: Average IC50) was 0.125 µM. The IC50 ([1]; [H3 1-25]/Km 5, Figure 2e, read-out: IC50 (µM), replicates) was 0.129 µM and 0.102 µM and 0.118 µM and 0.151 µM, the IC50 ([1]; [H3 1-25]/Km 10, Figure 2e, average of replicates, read-out: Average IC50) was 0.169 µM and the IC50 ([1]; [H3 1-25]/Km 10, Figure 2e, read-out: IC50 (µM), replicates) was 0.138 µM and 0.151 µM and 0.173 µM and 0.215 µM. The IC50 ([1]; [H3 1-25]/Km 20, Figure 2e, average of replicates, read-out: Average IC50) was 0.254 µM, the IC50 ([1]; [H3 1-25]/Km 20, Figure 2e, read-out: IC50 (µM), replicates) was 0.228 µM and 0.278 µM and 0.257 µM and the IC50 ([1]; [SAM]/Km 0.18, Figure 2d, average of replicates, read-out: Average IC50) was 0.893 µM. The IC50 ([1]; [SAM]/Km 0.18, Figure 2d, read-out: IC50 (µM), replicates) was 0.838 µM and 0.633 µM and 1.03 µM and 1.07 µM, the IC50 ([1]; [SAM]/Km 0.36, Figure 2d, average of replicates, read-out: Average IC50) was 0.704 µM and the IC50 ([1]; [SAM]/Km 0.36, Figure 2d, read-out: IC50 (µM), replicates) was 0.519 µM and 0.651 µM and 0.615 µM and 1.03 µM. The IC50 ([1]; [SAM]/Km 0.73, Figure 2d, average of replicates, read-out: Average IC50) was 0.374 µM, the IC50 ([1]; [SAM]/Km 0.73, Figure 2d, read-out: IC50 (µM), replicates) was 0.349 µM and 0.395 µM and 0.369 µM and 0.382 µM and the IC50 ([1]; [SAM]/Km 1.46, Figure 2d, average of replicates, read-out: Average IC50) was 0.275 µM. For the same compound, the IC50 ([1]; [SAM]/Km 1.46, Figure 2d, read-out: IC50 (µM), replicates) was 0.27 µM and 0.288 µM and 0.249 µM and 0.292 µM, the IC50 ([1]; [SAM]/Km 2.92, Figure 2d, average of replicates, read-out: Average IC50) was 0.21 µM and the IC50 ([1]; [SAM]/Km 2.92, Figure 2d, read-out: IC50 (µM), replicates) was 0.18 µM and 0.228 µM and 0.197 µM and 0.236 µM. For the same compound, the “Effect of SAH on PRDM9 inhibition by MRK-740, compared with SAM” value ([1]; increasing SAH in parallel to SAM) was “did not have the same effect”, the “Binding to PRDM9 in the presence of SAH, compared with SAM (in words)” value ([2]; 750 µM SAH versus 350 µM SAM) was “dramatically weaker” and the “SPR steady state response, raw data (Y)” value ([2]; X = 1.11E-07 (concentration, unit not given)) was 22.0666 and 21.2987 and 20.382 and 19.6958. The “SPR steady state response, raw data (Y)” value ([2]; X = 1.23E-08 (concentration, unit not given)) was 5.847 and 5.521 and 5.156 and 5.206, the “SPR steady state response, raw data (Y)” value ([2]; X = 3.70E-08 (concentration, unit not given)) was 12.6421 and 12.2536 and 11.7778 and 11.3155 and the kon ([2]; in the presence of 350 µM SAM) was 1.2e+06 ± 1e+11 M⁻¹ s⁻¹. The Kd ([2]; in the presence of 350 µM SAM, n = 4, read-out: Kd, SPR kinetic fit) was 0.087 ± 0.005 µM, the Binding [3] was > 50% and the “∆ Tm (°C), DSF” value [4] was -1.0 °C. The “∆ Tm (°C), DSF” value [5] was -0.536 °C, the “∆ Tm (°C), DSF” value [6] was -2.3 °C and the “∆ Tm (°C), DSF” value [7] was -0.9 °C. For the same compound, the “Functional activity (in words)” value [8] was “no functional activity”.
